Patent publication US9227967B2, “Inhibitor compounds of semicarbazide-sensitive amine oxidases” (Proximagen Limited, priority 2010, dated 2016)
pIC50: −log10 of the molar value.

Target: T1, human SSAO (Homo sapiens, UniProt Q16853)
T1 construct: made in house
T1 sequence (Q16853 29-763 limits assumed): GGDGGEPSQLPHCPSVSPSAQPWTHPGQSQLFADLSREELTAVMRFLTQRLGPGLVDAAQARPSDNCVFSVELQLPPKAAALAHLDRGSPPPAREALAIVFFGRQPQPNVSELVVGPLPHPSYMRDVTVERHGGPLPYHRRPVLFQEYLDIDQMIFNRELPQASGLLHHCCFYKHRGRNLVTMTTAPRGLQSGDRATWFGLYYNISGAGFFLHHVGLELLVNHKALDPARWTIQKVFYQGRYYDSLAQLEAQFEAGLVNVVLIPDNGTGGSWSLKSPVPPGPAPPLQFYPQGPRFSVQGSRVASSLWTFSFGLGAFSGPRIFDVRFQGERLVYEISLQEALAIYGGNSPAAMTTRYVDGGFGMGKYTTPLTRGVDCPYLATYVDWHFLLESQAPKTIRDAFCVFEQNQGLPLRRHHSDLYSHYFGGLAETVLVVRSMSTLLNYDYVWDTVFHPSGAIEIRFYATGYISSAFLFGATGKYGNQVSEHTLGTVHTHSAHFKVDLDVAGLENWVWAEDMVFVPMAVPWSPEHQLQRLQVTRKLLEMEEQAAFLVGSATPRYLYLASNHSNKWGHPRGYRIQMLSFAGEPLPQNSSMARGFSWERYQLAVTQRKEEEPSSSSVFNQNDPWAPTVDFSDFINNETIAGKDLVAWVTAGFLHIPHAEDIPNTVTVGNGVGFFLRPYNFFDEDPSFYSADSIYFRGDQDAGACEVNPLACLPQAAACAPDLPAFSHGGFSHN
Assay: SSAO enzyme inhibition assay (benzylamine substrate; HRP-coupled hydrogen peroxide detection or 14C-benzaldehyde detection)
Type: biochemical
Settings: purified recombinantly expressed human SSAO, benzylamine as substrate, r.t.; read-out: SSAO inhibitory activity IC50
Protocol: All primary assays were performed at r.t. with purified recombinantly expressed human SSAO. Enzyme was prepared essentially as described in Öhman et al. (Protein Expression and Purification 46 (2006) 321-331). In addition, secondary- and selectivity assays were performed using SSAO prepared from various tissues or purified rat recombinant SSAO. The enzyme activity was assayed with benzylamine as substrate by measuring either benzaldehyde production, using ^14C-labeled substrate, or by utilizing the production of hydrogen peroxide in a horseradish peroxidise (HRP) coupled reaction. Briefly, test compounds were dissolved in dimethyl sulfoxide (DMSO) to a concentration of 10 mM. Dose-response measurements were assayed by either creating 1:10 serial dilutions in DMSO to produce a 7 point curve or by making 1:3 serial dilutions in DMSO to produce 11 point curves. The top concentrations were adjusted depending on the potency of the compounds and subsequent dilution in reaction buffer yielded a final DMSO concentration ≦2%.
In a horseradish peroxidise (HRP) coupled reaction, hydrogen peroxide oxidation of 10-acetyl-3,7-dihydroxyphenoxazine produced resorufin, which is a highly fluorescent compound (Zhout and Panchuk-Voloshina. Analytical Biochemistry 253 (1997) 169-174; Amplex® Red Hydrogen Peroxide/peroxidise Assay kit, Invitrogen A22188). Enzyme and compounds in 50 mM sodium phosphate, pH 7.4 were set to pre-incubate in flat-bottomed microtiter plates for approximately 15 minutes before initiating the reaction by addition of a mixture of HRP, benzylamine and Amplex reagent. Benzylamine concentration was fixed at a concentration corresponding to the Michaelis constant, determined using standard procedures. Fluorescence intensity was then measured at several time points during 1-2 hours, exciting at 544 nm n and reading the emission at 590 nm. For the human SSAO assay final concentrations of the reagents in the assay wells were: SSAO enzyme 1 μg/ml, benzylamine 100 μM, Amplex reagent 20 μM, HRP 0.1 U/mL and varying concentrations of test compound. The inhibition was measured as % decrease of the signal compared to a control without inhibitor (only diluted DMSO). The background signal from a sample containing no SSAO enzyme was subtracted from all data points. Data was fitted to a four parameter logistic model and IC50 values were calculated using the GraphPad Prism 4 or XLfit 4 programs.
SSAO activity was assayed using 14C-labeled benzylamine and analysed by measuring radioactive benzaldehyde. In a white 96-well optiplate (Packard), 20 μL of diluted test compound was pre-incubated at r.t. with 20 μL SSAO enzyme for approximately 15 minutes with continuous agitation. All dilutions were made with PBS. The reaction was initiated by adding 20 μL of the benzylamine substrate solution containing [7-14C] Benzylamine hydrochloride (CFA589, GE Healthcare). The plate was incubated for 1 hour as above after which the reaction was stopped by acidification (10 μL 1 M HCl). Then 90 μL Micro Scint-E solution (Perkin-Elmer) was added to each well and the plate was continuously mixed for 15 minutes. Phase separation occurred instantly and activity was read in a Topcount scintillation counter (Perkin-Elmer). In the final reaction well, human recombinant SSAO concentration was 10 μg/ml. In order to optimize sensitivity, the substrate concentration was decreased as compared to the HRP coupled assay in order to get a higher fraction of radioactive product. In the human SSAO assay, benzylamine concentration was 40 μM (0.2 μCi/mL). Data was analysed as above.

SMILES | pIC50
OCCNCc1cn(-c2ccc(Cl)cc2)c2cnccc12 [Compound 31, 2-({[1-(4-Chlorophenyl)-1H-pyrrolo[2,3-c]pyridin-3-yl]methyl}amino)ethan-1-ol] | 5.60 to 6.30
c1ccc(-n2nc(C3CCOCC3)c3ccncc32)cc1 [Compound 40, 3-(Oxan-4-yl)-1-phenyl-1H-pyrazolo[3,4-c]pyridine] | 5.60 to 6.30
N#Cc1ccc(-n2nc(C3CCOCC3)c3ccncc32)cc1 [Compound 41, 4-[3-(Oxan-4-yl)-1H-pyrazolo[3,4-c]pyridin-1-yl]benzonitrile] | 5.60 to 6.30
FC(F)c1ccc(-n2nc(C3CCOCC3)c3ccncc32)cc1 [Compound 42, 1-[4-(Difluoromethyl)phenyl]-3-(oxan-4-yl)-1H-pyrazolo[3,4-c]pyridine] | 6.30 to 7.00
Cc1ccc(-n2nc(C3CCOCC3)c3ccncc32)c(F)c1 [Compound 43, 1-(2-Fluoro-4-methylphenyl)-3-(oxan-4-yl)-1H-pyrazolo[3,4-c]pyridine] | 6.30 to 7.00
Cc1ccc(-n2nc(C3CCOCC3)c3ccncc32)c(C)c1 [Compound 45, 1-(2,4-Dimethylphenyl)-3-(oxan-4-yl)-1H-pyrazolo[3,4-c]pyridine] | 5.60 to 6.30
Cc1ccc(-n2nc(C3CCOCC3)c3ccncc32)nc1 [Compound 46, 5-Methyl-2-[3-(oxan-4-yl)-1H-pyrazolo[3,4-c]pyridin-1-yl]pyridine] | 5.60 to 6.30
Cc1ccc(-n2nc(C3CCOCC3)c3ccncc32)cn1 [Compound 47, 2-Methyl-5-[3-(oxan-4-yl)-1H-pyrazolo[3,4-c]pyridin-1-yl]pyridine] | 5.60 to 6.30
FC1(F)CCN(c2nn(-c3ccc(Cl)cc3)c3cnccc23)C1 [Compound 48, 1-[1-(4-Chlorophenyl)-1H-pyrazolo[3,4-c]pyridin-3-yl]-3,3-difluoropyrrolidine] | 6.30 to 7.00
Clc1ccc(-n2nc(N3CCCCC3)c3ccncc32)cc1 [Compound 51, 1-[1-(4-Chlorophenyl)-1H-pyrazolo[3,4-c]pyridin-3-yl]piperidine] | 5.60 to 6.30
FC1(F)CCN(c2nn(-c3ccc(Cl)cc3)c3cnccc23)CC1 [Compound 52, 1-[1-(4-Chlorophenyl)-1H-pyrazolo[3,4-c]pyridin-3-yl]-4,4-difluoropiperidine] | 6.30 to 7.00
Fc1ccc(-n2nc(N3CCOCC3)c3ccncc32)cc1 [Compound 55, 4-[1-(4-Fluorophenyl)-1H-pyrazolo[3,4-c]pyridin-3-yl]morpholine] | 6.30 to 7.00
Cc1ccc(-n2nc(N3CCOC(CC(C)C)C3)c3ccncc32)cc1 (centres unmarked) [Compound 61, 4-[1-(4-Methylphenyl)-1H-pyrazolo[3,4-c]pyridin-3-yl]-2-(2-methylpropyl)morpholine] | 6.30 to 7.00
C[C@@H]1CN(c2nn(-c3ccc(Cl)cc3)c3cnccc23)C[C@H](C)O1 [Compound 62, (2S,6R)-4-[1-(4-Chlorophenyl)-1H-pyrazolo[3,4-c]pyridin-3-yl]-2,6-dimethylmorpholine] | 6.30 to 7.00
Cc1ccc(-n2nc(N3CCOCC3(C)C)c3ccncc32)cc1 [Compound 65] | 6.30 to 7.00
COCCN(C)c1nn(-c2ccc(C)cc2)c2cnccc12 [Compound 69, N-(2-Methoxyethyl)-N-methyl-1-(4-methylphenyl)-1H-pyrazolo[3,4-c]pyridin-3-amine] | 6.30 to 7.00

Further lines, results first:

pIC50 | SMILES
6.30 to 7.00 | OC1CCN(Cc2cn(-c3ccc(Cl)cc3)c3cnccc23)CC1 [Compound 30, 1-{[1-(4-Chlorophenyl)-1H-pyrrolo[2,3-c]pyridin-3-yl]methyl}piperidin-4-ol]
> 7.00 | Fc1cc(Cl)ccc1-n1nc(C2CCOCC2)c2ccncc21 [Compound 44, 1-(4-Chloro-2-fluorophenyl)-3-(oxan-4-yl)-1H-pyrazolo[3,4-c]pyridine]
> 7.00 | OC1CCN(c2nn(-c3ccc(Cl)cc3)c3cnccc23)C1 (centres unmarked) [Compound 49, 1-[1-(4-Chlorophenyl)-1H-pyrazolo[3,4-c]pyridin-3-yl]pyrrolidin-3-ol]
> 7.00 | COC1CCN(c2nn(-c3ccc(C)cc3)c3cnccc23)C1 (centres unmarked) [Compound 50, 3-Methoxy-1-[1-(4-methylphenyl)-1H-pyrazolo[3,4-c]pyridin-3-yl]pyrrolidine]
> 7.00 | OC1CCN(c2nn(-c3ccc(Cl)cc3)c3cnccc23)CC1 [Compound 53, 1-[1-(4-Chlorophenyl)-1H-pyrazolo[3,4-c]pyridin-3-yl]piperidin-4-ol]
> 7.00 | Cc1ccc(-n2nc(N3CCC(C(N)=O)CC3)c3ccncc32)cc1 [Compound 54, 1-[1-(4-Methylphenyl)-1H-pyrazolo[3,4-c]pyridin-3-yl]piperidine-4-carboxamide]
> 7.00 | Clc1ccc(-n2nc(N3CCOCC3)c3ccncc32)cc1 [Compound 56, 4-[1-(4-Chlorophenyl)-1H-pyrazolo[3,4-c]pyridin-3-yl]morpholine]
> 7.00 | Cc1ccc(-n2nc(N3CCOCC3)c3ccncc32)cc1 [Compound 57, 2,2,2-Trifluoroacetic acid; 4-[1-(4-methylphenyl)-1H-pyrazolo[3,4-c]pyridin-3-yl]morpholine]
> 7.00 | Cc1ccc(-n2nc(N3CCOCC3)c3ccncc32)c(F)c1 [Compound 58, 4-[1-(2-Fluoro-4-methylphenyl)-1H-pyrazolo[3,4-c]pyridin-3-yl]morpholine]
> 7.00 | CC1CN(c2nn(-c3ccc(Cl)cc3)c3cnccc23)CCO1 (centres unmarked) [Compound 59, 4-[1-(4-Chlorophenyl)-1H-pyrazolo[3,4-c]pyridin-3-yl]-2-methylmorpholine]
> 7.00 | CC1COCCN1c1nn(-c2ccc(Cl)cc2)c2cnccc12 (centres unmarked) [Compound 60, 4-[1-(4-Chlorophenyl)-1H-pyrazolo[3,4-c]pyridin-3-yl]-3-methylmorpholine]
> 7.00 | Cc1ccc(-n2nc(N3CC4CCC(C3)O4)c3ccncc32)cc1 [Compound 63, 3-[1-(4-Methylphenyl)-1H-pyrazolo[3,4-c]pyridin-3-yl]-8-oxa-3-azabicyclo[3.2.1]octane]
> 7.00 | Cc1ccc(-n2nc(N3CCOC(C)(C)C3)c3ccncc32)cc1 [Compound 64, 2,2-Dimethyl-4-[1-(4-methylphenyl)-1H-pyrazolo[3,4-c]pyridin-3-yl]morpholine]
> 7.00 | COC(=O)C1COCCN1c1nn(-c2ccc(C)cc2)c2cnccc12 (centres unmarked) [Compound 66, Methyl 4-[1-(4-methylphenyl)-1H-pyrazolo[3,4-c]pyridin-3-yl]morpholine-3-carboxylate]
> 7.00 | Cc1ccc(-n2nc(N3CCCOCC3)c3ccncc32)cc1 [Compound 67, 4-[1-(4-Methylphenyl)-1H-pyrazolo[3,4-c]pyridin-3-yl]-1,4-oxazepane]
> 7.00 | Cc1ccc(-n2nc(N3CCNC(=O)C3)c3ccncc32)cc1 [Compound 68, 4-[1-(4-Methylphenyl)-1H-pyrazolo[3,4-c]pyridin-3-yl]piperazin-2-one]
